# Assay results from patent US9688653B2, “Ethoxyphenyl thienyl compounds and methods for the treatment of bacterial infections” (Duke University, priority 2013, dated 2017).
# Legend:
# E. coli K1 strain UTI89 [1] = assay: Secondary assay 2: T7 phage-mediated lysis assay; format: cell-based, Escherichia coli; conditions: read-out: T7 phage IC50
# Excerpt: D. Secondary Assay 2: Screening for Inhibitors of Bacterial Capsule Biogenesis—T7 Lysis Inhibition
# Purpose: This secondary assay measures the compound mechanistic specificity for inhibition of bacterial capsule formation and excludes inhibitors of phage replication using a different bacteriophage (T7). In this assay, an increase in phage-induced lysis correlates to a decrease in capsule formation.
# Purpose: This secondary assay measures the compound mechanistic specificity for inhibition of bacterial capsule formation using a different bacterial phage (T7). In this assay, an increase in phage-induced lysis correlates to a decrease in capsule formation.
# Assay Description: T7 phage-mediated lysis assay: This assay determined if the mechanism of action of the compound is inhibition of phage infectivity or replication. The T7 phage has a nearly identical genome to K1F, without encoding an endosialidase. Its cycle of replication is similar to that of K1F as well. However, T7 entry into E. coli is inhibited by K capsules. This secondary assay was conducted in the 96 well plate format. […] Compounds were added in quadruplicate to plates in a concentration dependent manner in the range of 100-0.39 μM, followed by addition of 100 μL of bacterial culture. 1% DMSO (final well concentration) was included. The plates were tape sealed and shaken vigorously for 1.5 hr. An initial OD600 reading was measured to identify compounds that cause growth retardation or bacterial killing in the absence of phage. Next, T7 phage (5 μL) was added to all of the test wells. The plates were resealed and shaken vigorously at 37° C., and measurements of OD600 for phage-mediated lysis were taken after 3 hr. True inhibitors of capsule yielded bacteria that were susceptible to T7 phage and lysed within 2 hr of the addition of phage. […] The positive control drug C7 (100 μM final well concentration) was used in this screen.
# T7 phage counter assay. This secondary assay was performed as previously described and was used to distinguish compounds with phage inhibitory effects from true polysaccharide capsule inhibitors. […] Thus, the presence of a capsule inhibits T7-mediated lysis. In this assay, an increase in phage-induced lysis correlates to a decrease in capsule formation. True inhibitors of capsule yielded bacteria that were susceptible to T7 phage and lysed within 2 hr of the addition of phage. […] The positive control molecule C7 (100 μM final well concentration) was used in this screen.
# [2] = test system: Bladder carcinoma 5637 cells; assay: Cytotoxicity counterscreen, CellTiter Glo, 72 hr; format: cell-based, human
# Description: B. Counterscreen: Cytotoxicity Screening for Potential Inhibitors of Bacterial Capsule Biogenesis.
# Purpose: This cell-based assay measures the cytotoxicity of compounds in bladder carcinoma 5637 cells using luminescent cell viability assay readout.
# Cytotoxicity assay: The cytotoxicity assay was performed as described in Section 6: Appendix. Hit cytotoxicity and the 50% toxic concentration (CC50) was determined and compared to the IC50 to calculate the selectivity index.
# Assay Description: Cytotoxicity: Dose response testing (dose range=300-0.58 μM) established the hit cytotoxicity data. Compounds were plated in 384-well microplates in a stacked dose response format using the same doses used in the efficacy dose response. Bladder carcinoma 5637 cells were added to the compounds, and 72 hr later cell viability was measured using CellTiter Glo (38). Hit cytotoxicity and the 50% toxic concentration (TC50) was determined and compared to the IC50 to calculate the therapeutic index. Test compounds are serially diluted in a plate to plate matrix or stacked plate matrix. All 320 compounds in a source plate are diluted together resulting in a 10 point dose response dilution series. It is visualized as a serial dilution series proceeding vertically through a stack of plates with the high dose plate on top and the low dose plate on the bottom.
# Control Drug: Hyamine was used as a positive cytotoxic control. All wells contained 0.5% DMSO.
# Preparation of Bladder carcinoma 5637 cells: Cells are harvested and resuspended to 80,000 cells per ml in Complete DMEM/F12®.
# Endpoint Read: Following the three day incubation period, the assay plates were equilibrated to room temperature for 30 min and an equal volume (30 μL) of Cell Titer-Glo® reagent (Promega Inc.) is added to each well using a WellMate™ (Matrix, Hudson, N.H.) and plates are incubated for an additional 10 min at room temperature. At the end of the incubation, luminescence is measured using a Perkin Elmer Envision™ multi-label reader (PerkinElmer, Wellesley, Mass.) with an integration time of 0.1 s.
# Cytotoxicity. Testing was performed essentially as previously described. Concentration-response testing was performed over a range 0.58-300 μM in a […] well plate format. Bladder carcinoma 5637 cells (ATCC HTB-9) were added to the compounds, and 72 hrs later cell viability was measured using CellTiter Glo (Promega). The 50% toxic concentration (TC50) was determined and compared to the IC50 to calculate the therapeutic index. Hyamine was used as a positive cytotoxic control. All wells contained 0.5% DMSO.
# E. coli K1 strain UTI89 [3] = assay: microbe, parasite or virus in culture
# Excerpt: The ability of the […] to bind to bacterial capsule, infect, and lyse E. coli UT189 was used as the primary assay to identify the effects of screened compounds on bacterial capsule formation. The phenotypic end-point assay measured the fluorescence generated by cellular processing of Alamar Blue as a direct indicator of cell viability. A total of […] compounds were screened using the primary assay. […] Hits were further evaluated using […] secondary assays for alternative measurement of compound-induced reduction in bacterial capsule formation (secondary assays 1 and 2) and specificity (secondary assays 3 and 4). Confirmed actives with an SI>5 were further investigated and subjected to chemical optimization, followed by secondary assay evaluation. Secondary assays more closely characterized the ability of the compounds to reduce bacterial capsule formation and can be used to examine the mechanism of action of the compounds. The combination of primary assay (to measure capsule reduction), counter assay (for general eukaryotic cell toxicity) and secondary assay (to measure reduction in capsule formation and specificity) were combined to allow a determination of probe efficacy, selectivity, and specificity.
# A. Primary Assay: Screening for Inhibitors of Bacterial Capsule Biogenesis.
# Primary assay: An end-point assay to measure the amount of K1 phage-induced bacterial cell lysis was employed to determine the compound effect on capsule biogenesis. K1 bacteriophage specifically binds the bacterial capsule during the initial stages of infection. Bacteria without capsule cannot be infected and lysed by the bacteriophage. […] A total of 338,740 compounds were screened at 100 μM in the primary screen Inhibition of phage lysis was calculated relative to the mean of the bacterial (positive) control on each microtiter plate. […] For calculation of S/B/Z value, and CV, the following formulae (in which SD stands for standard deviation) were used: S/B=mean signal/mean background; Z=1-3SD of sample+3SD of control mean of sample−mean of control; % CV=(SD mean signal/mean signal)×100.
# IC50 values were calculated using a 4 parameter Levenburg-Marquardt algorithm, with the maximum and minimum locked at 0 and 100 respectively.
# Primary assay: The primary assay was conducted in the 1,536 well plate format. Bacterial cultures of E. coli K1 strain UTI89 (cystitis isolate) and isogenic capsule mutant strains (as controls for phage infection) were grown and prepared at the screening center immediately prior to use. Overnight starting cultures of UTI89 were grown at 37° C., and inoculated into 1 liter of LB (starting OD600˜0.03), which was sufficient for screening 40 plates (including ˜10% waste) and ˜40,000 compounds as single points.
# Control wells contained UTI89 (wt K1) with 0.5% DMSO as a simulated positive control; UTI89 with 0.5% DMSO and tetracycline for a negative growth control; and media plus vehicle control. 50 mL of LB Broth was inoculated with stock 150 μL E. coli UT189 and grown overnight at 37° C. The next day, cultures were diluted 1:75 in 1 L of LB Broth containing 0.5% DMSO. 3 μL of this culture was added to each plate well, and plates were incubated, inverted, at 37° C. for 2 hr. The K1F bacteriophage stock was diluted 1:8 in LB Broth containing 0.5% DMSO, and 1.5 μL of diluted phage (or media only) was added to the pre-plated test compound wells and appropriate control wells. The plates were centrifuged briefly, and then were incubated, inverted, at 37° C. for an additional 2 hr. Afterward, Alamar Blue reagent (Invitrogen, #DAL1100) was diluted 1:2 with LB broth and 1 μL was added to each plate well.
# [4] = first round of synthetic analogues, n = 2
# [5] = read-out: K1 phage IC50, first round of synthetic analogues, n = 3
# [6] = second round of synthetic analogues, n = 2
# [7] = read-out: K1 phage IC50, second round of synthetic analogues, n = 3
Structure (SMILES),IC50 (E. coli K1 strain UTI89 [1]; [4]) [µM],IC50 [2] [µM],IC50 (E. coli K1 strain UTI89 [3]; [5]) [µM],IC50 (E. coli K1 strain UTI89 [1]; [6]) [µM],IC50 (E. coli K1 strain UTI89 [3]; [7]) [µM],also measured
Cc1ccc(-c2cc(NC(=O)c3cccc(F)c3)c(C(=O)O)s2)cc1 [compound 53470441],7.21,43.9,53.7,–,–,–
CCOc1ccc(-c2cc(NC(=O)c3cccc(F)c3)c(C(=O)O)s2)cc1 [compound 23602076],2.61,61.3,14.7,–,–,–
O=C(O)c1sc(-c2ccc(OCC(F)(F)F)cc2)cc1NC(=O)c1c(F)cc(F)cc1F [compound 56643012],–,161,–,2.5 to 5,94.9,–
O=C(O)c1sc(-c2ccccc2)cc1NC(=O)C1CCCCC1 [compound 16393057],–,115,–,–,–,"IC50 (E. coli K1 strain UTI89 [1]; purchased analogue series, n = 2): 65.2 µM; IC50 (E. coli K1 strain UTI89 [3]; read-out: K1 phage IC50, purchased analogue series, n = 3): > 100 µM"
O=C(Nc1cc(-c2ccc(C(F)(F)F)cc2)sc1C(=O)O)c1cccc(F)c1 [compound 53470418],12.8,35.1,> 100,–,–,–
COc1ccc(-c2cc(NC(=O)c3c(F)cccc3F)c(C(=O)O)s2)cc1 [compound 53470430],2.65,239,> 100,–,–,–
CCCc1ccc(-c2cc(NC(=O)c3c(F)cc(F)cc3F)c(C(=O)O)s2)cc1 [compound 56643011],–,69.9,–,2.5 to 5,15.9,–
Cc1ccc(-c2cc(NC(=O)c3ccc(Br)o3)c(C(=O)O)s2)cc1 [compound 53470423],1.01,50.7,15.7,–,–,–
CCCc1ccc(-c2cc(NC(=O)c3ccc(Br)o3)c(C(=O)O)s2)cc1 [compound 56643013],–,46.4,–,< 0.625,1.43,–
O=C(O)c1sc(-c2ccc(OCCC(F)(F)F)cc2)cc1NC(=O)c1c(F)cccc1F [CID 56643020],–,–,–,–,–,IC50 (E. coli K1 strain UTI89 [1]): < 0.156 µM; Cytotoxicity CC50 / TC50 / IC50 ([2]; bladder carcinoma 5637 cells): 68.41 µM; IC50 (E. coli K1 strain UTI89 [3]; read-out: K1 phage IC50 (inhibition of K1 capsule formation)): 0.84 µM
CCCc1ccc(-c2cc(NC(=O)c3cc(Br)c(Br)o3)c(C(=O)O)s2)cc1 [compound 56643005],–,41,–,< 5,6.78,–
O=C(O)c1sc(-c2ccc(OC(F)(F)F)cc2)cc1NC(=O)c1c(F)cccc1F [compound 53495055],1.35,51,13,–,–,–
O=C(Nc1cc(-c2ccc(OCC(F)(F)F)cc2)sc1C(=O)O)c1ccc(Br)o1 [compound 56643003],–,50,–,0.625,4.9,–
